Experimental data published in ChEMBL document CHEMBL1150103, “Curacins B and C, New Antimitotic Natural Products from the Marine Cyanobacterium Lyngbya majuscula” (J Nat Prod, 1995).

Experiments:
[1] = Inhibition of tubulin polymerization
[2] = Toxicity in brine shrimp; type: organism-based; details: artemia, in vivo; read-out: LD50 (the source's name)
[3] = Displacement of [3H]colchicine from tubulin; details: concentration not given here
[4] = test system: CA46; assay: Cytotoxicity against human CA46 cells; type: functional, cell-based
[5] = test system: L1210; assay: Cytotoxicity against mouse L1210 cells; type: functional, cell-based

SMILES | IC50 [1] [nM] | LC50 [2] [nM] | inhibition [3] [%] | Activity [4] | Activity [5]
C=CC[C@@H](CC/C(C)=C/C=C/CC/C=C\[C@@H]1CSC([C@@H]2C[C@@H]2C)=N1)OC [CURACIN A] | 1400 | 8 | 96 |  | 
C=CC[C@@H](CC/C(C)=C/C=C\CC/C=C\[C@@H]1CSC([C@@H]2C[C@@H]2C)=N1)OC [CURACIN B] |  | 38 |  | Toxic | Toxic
C=CC[C@@H](CC/C(C)=C\C=C\CC/C=C\[C@@H]1CSC([C@@H]2C[C@@H]2C)=N1)OC [CURACIN C] |  | 54 |  | Toxic | Toxic
